Assay results from ChEMBL document CHEMBL1165911, “Elaborate ligand-based pharmacophore exploration and QSAR analysis guide the synthesis of novel pyridinium-based potent beta-secretase inhibitory leads” (Bioorg Med Chem, 2010).
Square brackets hold non-standard residues; d marks the D form. Peptide text beside a SMILES is read from it. * marks the point of attachment. ξ: configuration not given here. Cbz = O=C(OCc1ccccc1)*; ξV = CC(C)C(N)C(=O)O

Experiments:
Beta-secretase 1 [1] = target: T1, Beta-secretase 1 (Homo sapiens, UniProt P56817); experiment: Inhibition of BACE1 at 50 uM after 2 hrs by FRET assay
T1 sequence (P56817 whole entry): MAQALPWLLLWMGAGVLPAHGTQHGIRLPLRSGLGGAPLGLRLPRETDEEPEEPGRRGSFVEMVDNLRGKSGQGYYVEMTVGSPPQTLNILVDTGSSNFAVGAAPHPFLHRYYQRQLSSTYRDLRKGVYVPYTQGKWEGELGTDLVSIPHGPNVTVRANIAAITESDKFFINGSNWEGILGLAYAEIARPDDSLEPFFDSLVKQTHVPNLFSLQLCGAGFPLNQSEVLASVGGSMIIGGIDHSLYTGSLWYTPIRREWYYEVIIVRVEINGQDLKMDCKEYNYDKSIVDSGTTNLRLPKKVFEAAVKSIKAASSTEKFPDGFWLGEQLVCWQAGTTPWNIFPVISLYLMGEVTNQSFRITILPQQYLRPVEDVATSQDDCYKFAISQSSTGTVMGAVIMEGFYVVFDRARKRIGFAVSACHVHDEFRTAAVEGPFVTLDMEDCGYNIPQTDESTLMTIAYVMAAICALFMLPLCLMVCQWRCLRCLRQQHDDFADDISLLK

Beta-secretase 1 [2] = target: T1, Beta-secretase 1
Description: Inhibition of BACE1 after 2 hrs by FRET assay

Renin (Homo sapiens) = target: T2, Renin (Homo sapiens) (UniProt P00797); experiment: Inhibition of renin at 50 uM after 30 mins by fluorometric assay
T2 sequence (whole entry): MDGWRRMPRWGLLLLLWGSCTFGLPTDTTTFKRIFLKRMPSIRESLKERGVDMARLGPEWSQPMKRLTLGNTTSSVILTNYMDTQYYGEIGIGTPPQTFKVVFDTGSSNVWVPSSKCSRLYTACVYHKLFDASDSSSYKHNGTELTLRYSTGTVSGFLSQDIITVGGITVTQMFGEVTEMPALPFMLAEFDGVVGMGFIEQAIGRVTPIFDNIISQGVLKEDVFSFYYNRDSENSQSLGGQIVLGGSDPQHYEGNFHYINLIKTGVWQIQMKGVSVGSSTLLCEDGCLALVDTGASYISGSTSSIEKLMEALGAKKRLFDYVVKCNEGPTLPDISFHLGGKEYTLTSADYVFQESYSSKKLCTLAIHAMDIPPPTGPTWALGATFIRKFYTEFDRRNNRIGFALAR

Row | inhibition (Beta-secretase 1 [1]) | IC50 (Beta-secretase 1 [2]) | inhibition (Renin (Homo sapiens)) | Structure (SMILES)
1 | 64% | 30.2 µM | – | NC(=O)c1ccc[n+](CC(=O)Nc2cccc(C(=O)Nc3ccc(Cl)cc3)c2)c1
2 | 69% | – | – | Cc1ccc(NC(=O)c2cccc(NC(=O)C[n+]3cccc(C(N)=O)c3)c2)cc1
3 | 100% | 1.9 µM | 0% | COc1ccc(NC(=O)c2cccc(NC(=O)C[n+]3cccc(C(N)=O)c3)c2)cc1
4 | 44% | – | – | Cc1cccc(NC(=O)c2cccc(NC(=O)C[n+]3cccc(C(N)=O)c3)c2)c1
5 | 44% | – | – | COc1ccc(NC(=O)c2cccc(NC(=O)C[n+]3cccc(C(=O)NCCc4ccccc4)c3)c2)cc1
6 | 54% | 44.7 µM | – | NC(=O)c1ccc[n+](CC(=O)Nc2cccc(NC(=O)c3ccccc3)c2)c1
7 | 61% | – | – | Cc1cccc(NC(=O)c2cccc(NC(=O)C[n+]3ccccc3)c2)c1
8 | 24% | – | – | Cc1ccc(C(=O)Nc2cccc(NC(=O)C[n+]3cccc(C(N)=O)c3)c2)cc1
9 | 55% | – | – | O=C(C[n+]1cccc(C(=O)NCCc2ccccc2)c1)Nc1cccc(NC(=O)c2ccccc2)c1
10 | 51% | – | – | O=C(C[n+]1ccccc1)Nc1cccc(NC(=O)c2ccccc2)c1
11 | 68% | 13 µM | 0% | Cc1ccc(C(=O)Nc2cccc(NC(=O)C[n+]3ccccc3)c2)cc1
12 | 78% | 12 µM | 26% | O=C(C[n+]1cccc(C(=O)NCCc2ccccc2)c1)Nc1cccc(C(=O)Nc2ccc(Cl)cc2)c1
13 | 72% | 4 µM | 26% | Cc1ccc(NC(=O)c2cccc(NC(=O)C[n+]3cccc(C(=O)NCCc4ccccc4)c3)c2)cc1
14 | 58% | – | – | Cc1cccc(NC(=O)c2cccc(NC(=O)C[n+]3cccc(C(=O)NCCc4ccccc4)c3)c2)c1
15 | 36% | – | – | Cc1ccc(S(=O)(=O)Nc2cccc(NC(=O)C[n+]3cccc(C(=O)NCCc4ccccc4)c3)c2)cc1
16 | 100% | 2.2 µM | 22% | Cc1ccc(C(=O)Nc2cccc(NC(=O)C[n+]3cccc(C(=O)NCCc4ccccc4)c3)c2)cc1

Continued, compound first:

Row | Structure (SMILES) | inhibition (Beta-secretase 1 [1]) | IC50 (Beta-secretase 1 [2]) | inhibition (Renin (Homo sapiens))
17 | COc1ccc(NS(=O)(=O)c2cccc(NC(=O)C[n+]3cccc(C(N)=O)c3)c2)cc1 | 34% | – | –
18 | COc1ccc(NC(=O)c2cccc(NC(=O)C[n+]3ccccc3)c2)cc1 | 100% | 3.7 µM | 0%
19 | COc1ccc(NS(=O)(=O)c2cccc(NC(=O)C[n+]3ccccc3)c2)cc1 | 50% | – | –
20 | O=C(C[n+]1ccccc1)Nc1cccc(C(=O)Nc2ccc(Cl)cc2)c1 | 100% | 1 µM | 0%
21 | Cc1ccc(S(=O)(=O)Nc2cccc(NC(=O)C[n+]3cccc(C(N)=O)c3)c2)cc1 | 4% | – | –
22 | Cc1ccc(NC(=O)c2cccc(NC(=O)C[n+]3ccccc3)c2)cc1 | 42% | – | –
23 | CCSc1scc(CC)c1C1C(C(=O)Nc2ccc(Br)cn2)=C(C)NC2=C1C(=O)CC(C)(C)C2 (stereo not given) | – | 100 µM | –
24 | COc1ccc(C(=O)Nc2ccccc2C(=O)NC(CCSC)C(=O)NNC(=O)Sc2nc3ccccc3s2)cc1 (stereo not given) | – | 50 µM | –
25 | NS(=O)(=O)c1ccc(CCNC(=O)CCc2nc3sc4c(c3c(=O)[nH]2)CCCC4)cc1 | – | 100 µM | –
26 | CCc1ccc(Sc2c(N)c3c(c(N)c2Sc2ccc(CC)cc2)C(=O)c2ccccc2C3=O)cc1 | – | 253 µM | –
27 | O=C(Nc1ccc(Cl)cc1C(=O)c1ccccc1)c1ccc(Nc2nc(-c3ccccc3)c3cc(Br)ccc3n2)cc1 | – | 100 µM | –
28 | O=C(NCCc1ccccc1)c1c[nH]c2ccc(S(=O)(=O)N3CCc4ccccc4C3)cc2c1=O | – | 100 µM | –
29 | CC(C)C(NC(=O)CNC(=O)CNC(=O)OCc1ccccc1)C(=O)O (stereo not drawn) (Cbz-Gly-Gly-[ξV]-OH) | – | 500 µM | –
